Results: patent US20090220614A1, “Thermo-Responsive Block Co-Polymers, and Use Thereof” (The Trustees of the University of Pennsylvania, priority 2005, published 2009)

Assay: Release of doxorubicin from OPA215 vesicles, dialysis cassette in PBS, 485 nm absorption
Type: physicochemical
Settings: 37° C., within 2 hours
Description: The Dox-loaded vesicles were centrifuged at 40° C. to remove excess free Dox and resuspended into a 0.320 osM PBS solution at ° C. Then, 3 ml of the aforementioned solution was injected into a dialysis cassette (molecular weight cut-off 3000 g mol^−1), and dialyzed against the PBS solution at 37° C. for 6 hours to ensure complete removal of any free Dox outside of the vesicles. After the initial aliquot was taken, the cassette was immersed in a 300 ml PBS solution at 37° and 27° C., respectively, for monitoring the 485 nm absorption peak of Dox using UV-vis spectrometry. At time intervals, a 3 ml aliquot of the PBS solution was sampled from the external solution of the dialysis cassette.
To study thermally triggered release of Dox from the OPA215 vesicles in PBS solutions, vesicles and control samples were entrapped in dialysis cassettes and sampled in external PBS solutions for the 485 nm absorption peak of Dox at different time intervals (FIG. 9).

loss of Dox during dialysis: > 70%
SMILES: COc1cccc2c1C(=O)c1c(O)c3c(c(O)c1C2=O)C[C@@](O)(C(=O)CO)C[C@@H]3O[C@H]1C[C@H](N)[C@H](O)[C@H](C)O1 [free Dox, Doxorubicin]
